Results: patent US10450297B2, “Sulfonyl amide derivatives for the treatment of abnormal cell growth” (Pfizer, Inc., priority 2007, dated 2019)

Target: FAK kinase (catalytic construct FAK(410-689)) (Homo sapiens (Human), UniProt Q05397)
Assay: FAKcd kinase ELISA (inhibition of poly-glu-tyr phosphorylation by FAK(410-689))
Format: biochemical
Conditions: 50 μM final ATP

FAK kinase (catalytic construct FAK(410-689)), sequence (Q05397 410-689): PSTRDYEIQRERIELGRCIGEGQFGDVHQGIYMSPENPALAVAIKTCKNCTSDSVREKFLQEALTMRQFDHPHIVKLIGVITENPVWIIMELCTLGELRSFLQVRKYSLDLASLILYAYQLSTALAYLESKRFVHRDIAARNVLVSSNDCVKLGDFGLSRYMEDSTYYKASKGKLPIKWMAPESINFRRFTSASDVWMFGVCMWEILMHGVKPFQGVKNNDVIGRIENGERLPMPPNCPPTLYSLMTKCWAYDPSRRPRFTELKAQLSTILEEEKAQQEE

Structure (SMILES)	IC50
CN(c1ncccc1CNc1nc(Nc2cccc(C(=O)N3CCC[C@H](O)C3)c2)ncc1C(F)(F)F)S(C)(=O)=O [Compound 159, N-{3-[({2-[(3-{[(3S)-3-hydroxypiperidin-1-yl]carbonyl}phenyl)amino]-5-(trifluoromethyl)pyrimidin-4-yl}amino)methyl]pyridin-2-yl}-N-methylmethane-sulfonamide]	6.14 nM
CC(C)[C@H](CO)NC(=O)c1cccc(Nc2ncc(C(F)(F)F)c(NCc3cccnc3N(C)S(C)(=O)=O)n2)c1 [Compound 161, N-[(1R)-1-(hydroxymethyl)-2-methylpropyl]-3-({4-(({2-[methyl(methylsulfonyl)amino]pyridin-3-yl}methyl)amino]-5-(trifluoromethyl)pyrimidin-2-yl}amino)benzamide]	3.74 nM
CN(c1ncccc1CNc1nc(Nc2cccc(C(=O)NC3CCCC3)c2)ncc1C(F)(F)F)S(C)(=O)=O [Compound 163, N-cyclopentyl-3-({4-[({2-[methyl(methylsulfonyl)amino]pyridin-3-yl}methyl)amino]-5-(trifluoromethyl)pyrimidin-2-yl}amino)benzamide]	5.1 nM
CN(C)C1CN(C(=O)c2cccc(Nc3ncc(C(F)(F)F)c(NCc4cccnc4N(C)S(C)(=O)=O)n3)c2)C1 [Compound 165, N-{3-[({2-[(3-{[3-(dimethylamino)azetidin-1-yl]carbonyl}phenyl)amino]-5-(trifluoromethyl)pyrimidin-4-yl}amino)methyl]pyridin-2-yl}-N-rnethylmethane-sulfonamide]	4.93 nM
CC(=O)NCCNC(=O)c1cccc(Nc2ncc(C(F)(F)F)c(NCc3cccnc3N(C)S(C)(=O)=O)n2)c1 [Compound 167, N-[2-(acetylamino)ethyl]-3-({4-[({2-[methyl(methylsulfonyl)amino]pyridin-3-yl}methyl)amino]-5-(trifluoromethyl)pyrimidin-2-yl}amino)benzamide]	3.44 nM
CC[C@H](CO)NC(=O)c1cccc(Nc2ncc(C(F)(F)F)c(NCc3cccnc3N(C)S(C)(=O)=O)n2)c1 [Compound 169, N-[(1R)-1-(hydroxymethyl)propyl]-3-({4-(({2-[methyl(methylsulfonyl)amino]pyridin-3-yl}methyl)amino]-5-(trifluoromethyl)pyrimidin-2-yl}amino)benzamide]	2.47 nM
CN(c1ncccc1CNc1nc(Nc2cccc(C(=O)N3CCCCC3)c2)ncc1C(F)(F)F)S(C)(=O)=O [Compound 171, N-methyl-N-[3-({[2-{[3-(piperidin-1-ylcarbonyl)phenyl]amino}-5-(trifluoromethyl)pyrimidin-4-yl]amino}methyl)pyridin-2-yl]methanesulfonamide]	7.91 nM
CN1CCC(NC(=O)c2cccc(Nc3ncc(C(F)(F)F)c(NCc4cccnc4N(C)S(C)(=O)=O)n3)c2)CC1 [Compound 173, 3-({4-[({2-[methyl(methylsulfonyl)amino]pyridin-3-yl}methyl)amino]-5-(trifluoromethyl)pyrimidin-2-yl}amino)-N-(1-methylpiperidin-4-yl)benzamide]	0.96 nM
CN(c1ncccc1CNc1nc(Nc2cccc(C(=O)N3CC[C@@H](O)C3)c2)ncc1C(F)(F)F)S(C)(=O)=O [Compound 175, N-{3-[({2-[(3-{[(3R)-3-hydroxypyrrolidin-1-yl]carbonyl}phenyl)amino]-5-(trifluoromethyl)pyrimidin-4-yl}amino)methyl]pyridin-2-yl}-N-methyl-methanesulfonamide]	4.08 nM
CN(c1ncccc1CNc1nc(Nc2cccc(C(=O)N3CCC(F)(F)C3)c2)ncc1C(F)(F)F)S(C)(=O)=O [Compound 177, N-[3-({(2-({3-[(3,3-difluoropyrrolidin-1-yl)carbonyl]phenyl}amino)-5-(trifluoromethyl)pyrimidin-4-yl]amino}methyl)pyridin-2-yl]-N-methylmethane-sulfonamide]	5.93 nM
CC(C)[C@@H](CO)NC(=O)c1cccc(Nc2ncc(C(F)(F)F)c(NCc3cccnc3N(C)S(C)(=O)=O)n2)c1 [Compound 179, N-[(1S)-1-(hydroxymethyl)-2-methylpropyl]-3-({4-[({2-[methyl(methylsulfonyl)amino]pyridin-3-yl}methyl)amino]-5-(trifluoromethyl)pyrimidin-2-yl}amino)benzamide]	1.09 nM
COCCCN(C)C(=O)c1cccc(Nc2ncc(C(F)(F)F)c(NCc3cccnc3N(C)S(C)(=O)=O)n2)c1 [Compound 181, N-(3-methoxypropyl)-N-methyl-3-({4-[({2-[methyl(methylsulfonyl)amino]pyridin-3-yl}methyl)amino]-5-(trifluoromethyl)pyrimidin-2-yl}amino)benzamide]	9.18 nM
CC[C@@H](CO)NC(=O)c1cccc(Nc2ncc(C(F)(F)F)c(NCc3cccnc3N(C)S(C)(=O)=O)n2)c1 [Compound 183, N-[(1S)-1-(hydroxymethyl)propyl]-3-({4-[({2-[methyl(methylsulfonyl)amino]pyridin-3-yl}methyl)amino]-5-(trifluoromethyl)pyrimidin-2-yl}amino)benzamide]	1.96 nM
CN(c1ncccc1CNc1nc(Nc2cccc(C(=O)NC3CCC3)c2)ncc1C(F)(F)F)S(C)(=O)=O [Compound 185, N-cyclobutyl-3-({4-[({2-[methyl(methylsulfonyl)amino]pyridin-3-yl}methyl)amino]-5-(trifluoromethyl)pyrimidin-2-yl}amino)benzamide]	2.17 nM
CC(C)NC(=O)c1cccc(Nc2ncc(C(F)(F)F)c(NCc3cccnc3N(C)S(C)(=O)=O)n2)c1 [Compound 189, N-isopropyl-3-({4-[({2-[methyl(methylsulfonyl)amino]pyridin-3-yl}methyl)amino]-5-(trifluoromethyl)pyrimidin-2-yl}amino)benzamide]	4.3 nM
CN(c1ncccc1CNc1nc(Nc2cccc(C(=O)NCc3ccccc3)c2)ncc1C(F)(F)F)S(C)(=O)=O [Compound 191, N-benzyl-3-({4-[({2-[methyl(methylsulfonyl)amino]pyridin-3-yl}methyl)amino]-5-(trifluoromethyl)pyrimidin-2-yl}amino)benzamide]	5.5 nM
CCCN(CCO)C(=O)c1cccc(Nc2ncc(C(F)(F)F)c(NCc3cccnc3N(C)S(C)(=O)=O)n2)c1 [Compound 193, N-(2-hydroxyethyl)-3-({4-[({2-[methyl(methylsulfonyl)amino]pyridin-3-yl}methyl)amino]-5-(trifluoromethyl)pyrimidin-2-yl}amino)-N-propylbenzamide]	1.1 nM
CCN(CCOC)C(=O)c1cccc(Nc2ncc(C(F)(F)F)c(NCc3cccnc3N(C)S(C)(=O)=O)n2)c1 [Compound 195, N-ethyl-N-(2-methoxyethyl)-3-({4-[({2-[methyl(methylsulfonyl)amino]pyridin-3-yl}methyl)amino]-5-(trifluoromethyl)pyrimidin-2-yl}amino)benzamide]	6.81 nM

Continued, values first:

IC50	Structure (SMILES)
4.47 nM	CC1CCN(C(=O)c2cccc(Nc3ncc(C(F)(F)F)c(NCc4cccnc4N(C)S(C)(=O)=O)n3)c2)CC1 [Compound 197, N-methyl-N-[3-({[2-({3-[(4-methylpiperidin-1-yl)carbonyl]phenyl}amino)-5-(trifluoromethyl)pyrimidin-4-yl]amino}methyl)pyridin-2-yl]methanesulfonamide]
2.56 nM	CN1CCN(C(=O)c2cccc(Nc3ncc(C(F)(F)F)c(NCc4cccnc4N(C)S(C)(=O)=O)n3)c2)CC1 [Compound 199, N-methyl-N-[3-({[2-({3-[(4-methylpiperazin-1-yl)carbonyl]phenyl}amino)-5-(trifluoromethyl)pyrimidin-4-yl]amino}methyl)pyridin-2-yl]methanesulfonamide]
1.64 nM	CN(c1ncccc1CNc1nc(Nc2cccc(C(=O)NC(C)(C)CO)c2)ncc1C(F)(F)F)S(C)(=O)=O [Compound 201, N-(2-hydroxy-1,1-dimethylethyl)-3-({4-[({2-[methyl(methylsulfonyl)amino]pyridin-3-yl}methyl)amino]-5-(trifluoromethyl)pyrimidin-2-yl}amino)benzamide]
1.13 nM	CCC(CO)NC(=O)c1cccc(Nc2ncc(C(F)(F)F)c(NCc3cccnc3N(C)S(C)(=O)=O)n2)c1 (stereo not drawn) [Compound 203, N-[1-(hydroxymethyl)propyl]-3-({4-[({2-[methyl(methylsulfonyl)amino]pyridin-3-yl}methyl)amino]-5-(trifluoromethyl)pyrirnidin-2-yl}amino)benzamide]
3.2 nM	CN(C)CCNC(=O)c1cccc(Nc2ncc(C(F)(F)F)c(NCc3cccnc3N(C)S(C)(=O)=O)n2)c1 [Compound 205, N-[2-(dimethylamino)ethyl]-3-({4-[({2-[methyl(methylsulfonyl)amino]pyridin-3-yl}methyl)amino]-5-(trifluoromethyl)pyrimidin-2-yl}amino)benzamide]
2.78 nM	C[C@@H]1COCCN1C(=O)c1cccc(Nc2ncc(C(F)(F)F)c(NCc3cccnc3N(C)S(C)(=O)=O)n2)c1 [Compound 207, N-methyl-N-{3-[({2-[(3-{[(3R)-3-methylmorpholin-4-yl]carbonyl}phenyl)amino]-5-(trifluoromethyl)pyrimidin-4-yl}amino)methyl]pyridin-2-yl}methanesulfonamide]
3.68 nM	CCCC1(NC(=O)c2cccc(Nc3ncc(C(F)(F)F)c(NCc4cccnc4N(C)S(C)(=O)=O)n3)c2)CC1 [Compound 209, 3-({4-[({2-[methyl(methylsulfonyl)amino]pyridin-3-yl}methyl)amino]-5-(trifluoromethyl)pyrimidin-2-yl}amino)-N-(1-propylcyclopropyl)benzamide]
1.06 nM	C[C@@H](CO)NC(=O)c1cccc(Nc2ncc(C(F)(F)F)c(NCc3cccnc3N(C)S(C)(=O)=O)n2)c1 [Compound 211, N-[(1S)-2-hydroxy-1-methylethyl]-3-({4-[({2-[methyl(methylsulfonyl)amino]pyridin-3-yl}methyl)amino]-5-(trifluoromelhyl)pyrimidin-2-yl}amino)benzamide]
2.88 nM	CN(c1ncccc1CNc1nc(Nc2cccc(C(=O)N3CCNC(=O)C3)c2)ncc1C(F)(F)F)S(C)(=O)=O [Compound 213, N-methyl-N-[3-({[2-({3-[(3-oxopiperazin-1-yl)carbonyl]phenyl}amino)-5-(trifluoromethyl)pyrimidin-4-yl]amino}methyl)pyridin-2-yl]methanesulfonamide]
